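Exposure lasted 48 hours, with cells grown in 96-well plates and compounds tested at five concentrations. The concentration for 50% growth inhibition is given as GI50. TGI: concentration producing complete growth inhibition.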
Key:
Assay in all cases: growth of human tumour cells (NCI), 48 h
[1] = test system: 786-0 renal
[2] = test system: A498 renal
[3] = test system: A549 NSCLC
[4] = test system: ACHN renal
[5] = test system: BT-549 breast
[6] = test system: CAKI-1 renal
[7] = test system: CCRF-CEM leukemia
[8] = test system: COLO 205 colon
[9] = test system: DU-145 prostate
[10] = test system: EKVX NSCLC
[11] = test system: HCC-2998 colon
[12] = test system: HCT-116 colon
[13] = test system: HCT-15 colon
[14] = test system: HL-60(TB) leukemia
[15] = test system: HOP-62 NSCLC
[16] = test system: HOP-92 NSCLC
[17] = test system: HS 578T breast
[18] = test system: HT29 colon
[19] = test system: IGROV1 ovarian
[20] = test system: K-562 leukemia
[21] = test system: KM12 colon
[22] = test system: M14 melanoma
[23] = test system: MALME-3M melanoma
[24] = test system: MCF7 breast
[25] = test system: MDA-MB-231 breast
[26] = test system: MDA-MB-435
[27] = test system: MDA-MB-468 breast
[28] = test system: MOLT-4 leukemia
[29] = test system: NCI-H226 lung
[30] = test system: NCI-H23 lung
[31] = test system: NCI-H460 lung
[32] = test system: NCI/ADR-RES ovarian
[33] = test system: OVCAR-3 ovarian
[34] = test system: OVCAR-4 ovarian
[35] = test system: OVCAR-5 ovarian
[36] = test system: OVCAR-8 ovarian
[37] = test system: PC-3 prostate
[38] = test system: RPMI-8226 leukemia
[39] = test system: RXF 393 renal
[40] = test system: SF-268 CNS
[41] = test system: SF-295 CNS
[42] = test system: SF-539 CNS
[43] = test system: SK-MEL-2 melanoma
[44] = test system: SK-MEL-28 melanoma
[45] = test system: SK-MEL-5 melanoma
[46] = test system: SK-OV-3 ovarian
[47] = test system: SN12C renal
[48] = test system: SNB-19 CNS
[49] = test system: SNB-75 CNS
[50] = test system: SR leukemia
[51] = test system: SW-620 colon
[52] = test system: T-47D breast
[53] = test system: TK-10 renal
[54] = test system: U251 CNS
[55] = test system: UACC-257 melanoma
[56] = test system: UACC-62 melanoma
[57] = test system: UO-31 renal

Work on Nc1cc(-c2c[nH]c3ccc(F)cc23)nc2cc(-c3c[nH]c4ccccc34)nn12 yielded a GI50 [1] of 1.49 µM, a TGI [1] of 2.93 µM and a GI50 [2] of 2.8 µM. It also gave a TGI [2] of 11.3 µM, a GI50 [3] of 3.81 µM and a TGI [3] of 20.5 µM. It also gave a GI50 [4] of 3.22 µM, a TGI [4] of 10.9 µM and a GI50 [5] of 8.6 µM. It also gave a TGI [5] of 20.8 µM, a GI50 [6] of 2.74 µM and a TGI [6] of 12.4 µM. It also gave a GI50 [7] of 2.65 µM, a TGI [7] of 8.01 µM and a GI50 [8] of 1.6 µM. For the same compound, the TGI [8] was 3.2 µM, the GI50 [9] was 4.3 µM and the TGI [9] was 15.3 µM. It also gave a GI50 [10] of 3.49 µM, a TGI [10] of 14.9 µM and a GI50 [11] of 2.02 µM. It also gave a TGI [11] of 4.14 µM, a GI50 [12] of 1.91 µM and a TGI [12] of 4.1 µM. It also gave a GI50 [13] of 1.71 µM, a TGI [13] of 3.69 µM and a GI50 [14] of 2.18 µM. It also gave a TGI [14] of 9.55 µM, a GI50 [15] of 4.55 µM and a TGI [15] of 21.8 µM. It also gave a GI50 [16] of 2.42 µM, a TGI [16] of 7.09 µM and a GI50 [17] of 3.73 µM. The TGI [17] was 20.5 µM, the GI50 [18] was 2.09 µM and the TGI [18] was 4.72 µM. It also gave a GI50 [19] of 4.26 µM, a TGI [19] of 17.6 µM and a GI50 [20] of 2.15 µM. For the same compound, the TGI [20] was 6.12 µM, the GI50 [21] was 2.35 µM and the TGI [21] was 5.79 µM. For the same compound, the GI50 [22] was 1.98 µM, the TGI [22] was 4.21 µM and the GI50 [23] was 2.24 µM. The TGI [23] was 4.79 µM, the GI50 [24] was 2.54 µM and the TGI [24] was 8.12 µM. The GI50 [25] was 2 µM, the TGI [25] was 3.84 µM and the GI50 [26] was 3.67 µM. For the same compound, the TGI [26] was 15.2 µM, the GI50 [27] was 1.7 µM and the TGI [27] was 4.3 µM. For the same compound, the GI50 [28] was 2.44 µM, the TGI [28] was 6.87 µM and the GI50 [29] was 5.57 µM. The TGI [29] was 32.6 µM, the GI50 [30] was 3.8 µM and the TGI [30] was 17.7 µM. The GI50 [31] was 2.27 µM, the TGI [31] was 5.37 µM and the GI50 [32] was 3.82 µM. It also gave a TGI [32] of 19.3 µM, a GI50 [33] of 4.17 µM and a TGI [33] of 16.9 µM. The GI50 [34] was 4.2 µM, the TGI [34] was 18.9 µM and the GI50 [35] was 3.3 µM. For the same compound, the TGI [35] was 11.1 µM, the GI50 [36] was 4.3 µM and the TGI [36] was 26.7 µM. For the same compound, the GI50 [37] was 3.18 µM, the TGI [37] was 12.2 µM and the GI50 [38] was 2.64 µM. For the same compound, the TGI [38] was 8.15 µM, the GI50 [39] was 2.19 µM and the TGI [39] was 7.82 µM. The GI50 [40] was 4.15 µM, the TGI [40] was 21.7 µM and the GI50 [41] was 1.86 µM. It also gave a TGI [41] of 4.04 µM, a GI50 [42] of 2 µM and a TGI [42] of 4.01 µM. The GI50 [43] was 3.96 µM, the TGI [43] was 15.1 µM and the GI50 [44] was 2.96 µM. For the same compound, the TGI [44] was 9.82 µM, the GI50 [45] was 3.79 µM and the TGI [45] was 13.6 µM. It also gave a GI50 [46] of 10.1 µM, a TGI [46] of 23 µM and a GI50 [47] of 6.94 µM. It also gave a TGI [47] of 21.7 µM, a GI50 [48] of 4.59 µM and a TGI [48] of 18.9 µM. It also gave a GI50 [49] of 2.88 µM, a TGI [49] of 14.6 µM and a GI50 [50] of 2.09 µM. For the same compound, the TGI [50] was 8.42 µM, the GI50 [51] was 2.11 µM and the TGI [51] was 4.22 µM. The GI50 [52] was 3.54 µM, the TGI [52] was 20.9 µM and the GI50 [53] was 5.54 µM. For the same compound, the TGI [53] was 19.9 µM, the GI50 [54] was 3.53 µM and the TGI [54] was 14.1 µM. The GI50 [55] was 4.28 µM, the TGI [55] was 15.2 µM and the GI50 [56] was 6.03 µM. It also gave a TGI [56] of 19.3 µM, a GI50 [57] of 3.02 µM and a TGI [57] of 12.7 µM.

— PubChem BioAssay (NCI)
